Experimental data reported in patent EP2238984A1, “Caspasin inhibitor peptides” (INSTITUT NATIONAL DE LA RECHERCHE AGRONOMIQUE (INRA), priority 2009, dated 2010).

Test system: LNCaP human prostate cancer cells
Assay: BrdU cell proliferation assay
Type: cell-based
Conditions: BrdU incorporation; for cell proliferation: LNCaP cells incubated with peptide, absorbance at 450 nm, at a concentration as lowest as 1 µM (Figure 1)
Procedure: Peptides of sequences SEQ ID NO: 48 and SEQ ID NO: 49 were used in the experiments. They were resuspended in dimethylsulfoxide (DMSO) to obtain a concentration of about 50 mM. They were then diluted in fetal calf serum (FCS) before being added to culture cells at the indicated concentrations.
FGC clone LNCaP human prostate cancer cells, commercialized by ATCC-LGC (Molsheim, France; ATCC Number: CRL-1740) were used.
The cells were incubated for 48 hours with the caspasin inhibitor peptides at the following concentrations: 0.1, 0.3, 0.9, 3, 10, 20, 30, 60 and 90 µM.
Cell proliferation was then assessed by quantifying the DNA precursor bromo-deoxyuridine (BrdU). This quantification was performed using the 5'-Bromo-2'-deoxy-uridine Labeling and Detection Kit (Roche) according to the manufacturer's instructions.
LNCaP prostatic cells were incubated for 24 hours in a 96-well plastic plate containing 200 µl RPMI 1640 medium complemented with 1.5 g/I sodium carbonate, 4.5 g/I glucose, 10 mM HEPES, 1.0 mM sodium pyruvate, 10% foetal bovine serum (FBS) and antibiotics. Peptides were pre-incubated for 1 h30 in 20 µl of FBS at 37°C, then added to 180 µl of RPMI. Medium from plates was released and the medium containing peptides was added to the cells. The cells were then cultured for another 24 hours. BrdU incorporation was then determined by measuring the absorbance at 450 nm on an ELISA plate reader.

**Q.** For “SEQ ID NO: 48: caspasin inhibitor peptide originating from a caspasin reactive centre loop; sequence only in the sequence listing (ATGIGI)”, which cell proliferation is on record?
**A.** The cell proliferation was “drastic decrease of the cell proliferation”.

**Q.** Which results are given for “SEQ ID NO: 49: caspasin inhibitor peptide originating from a caspasin reactive centre loop; sequence only in the sequence listing (FLMMITNKA)”?
**A.** cell proliferation: drastic decrease of the cell proliferation; concentration of peptide at which a plateau was reached (cell proliferation) (LNCaP cells, concentrations tested 0.1-90 µM (Figure 1)): 3 µM
